These are literature values, as cited in US20120328543A1, “USE OF A CATIONIC, ADVANTAGEOUSLY AMPHOTERIC, SURFACTANT FOR THE PREPARATION OF AN ANTIFUNGAL SOLUTION THAT CAN BE APPLIED TO THE NAIL” (priority 2009, published 2012).

Test in series [1]: not given
This is another data set of the same source.

In the case of `CN(C/C=C/C#CC(C)(C)C)Cc1cccc2ccccc12.Cl` [Terbinafine HCl, terbinafine hydrochloride], the solubility in water was 5.32 µg/mL. Besides, the pKa in series [1] is 7.10.
